Reference: ChEMBL document CHEMBL4130462, “Natural isoflavone biochanin A as a template for the design of new and potent 3-phenylquinolone efflux inhibitors against Mycobacterium avium” (Eur J Med Chem, 2017)
≈ marks a conversion by molar mass, not a printed value.

Key:
[1] = tested on: Mycobacterium avium; settings: 104
[2] = tested on: Mycobacterium avium; settings: isolate MAV3
[3] = tested on: Mycobacterium avium; settings: isolate MAV3; remark: listed apart in the source
[4] = tested on: Mycobacterium avium; settings: 104; remark: listed apart in the source
[5] = tested on: Mycobacterium avium; settings: isolate MAV2
Description: Inhibition of multidrug resistance efflux pump in Mycobacterium avium isolate MAV2 assessed as potentiation of clarithromycin -induced antibacterial activity by measuring clarithromycin MIC at 1/4 MIC incubated for 3 days by MTT assay (Rvb = >1024 ug/ml)

[6] = tested on: Mycobacterium avium; settings: isolate MAV4
[7] = tested on: Mycobacterium avium; settings: isolate MAV4; remark: listed apart in the source
[8] = tested on: Mycobacterium avium; settings: 72 h
Description: Antimycobacterial activity against Mycobacterium avium 104 assessed as reduction in bacterial viability incubated for 3 days by MTT assay

[9] = tested on: Mycobacterium avium; settings: isolate MAV3; remark: listed apart in the source
[10] = tested on: Mycobacterium avium; settings: 104 mc'2 3
[11] = tested on: Mycobacterium avium; settings: 104 mc'2 4
[12] = tested on: Mycobacterium avium; settings: isolate MAV1
[13] = tested on: Mycobacterium avium; settings: isolate MAV4; remark: listed apart in the source
[14] = tested on: Mycobacterium avium; settings: isolate MAV1; remark: listed apart in the source
[15] = tested on: Mycobacterium avium; settings: isolate MAV3; remark: listed apart in the source
[16] = Safety index, ratio of CC50 for test compound to CC50 for thioridazine for cytotoxicity in human monocyte-derived macrophages; assay type: cell-based, Macrophage cell line
[17] = Safety index, ratio of CC50 for test compound to CC50 for chlorpromazine for cytotoxicity in human monocyte-derived macrophages; assay type: cell-based, Macrophage cell line
[18] = tested on: Mycobacterium avium; settings: 104 mc'2 4; remark: listed apart in the source
[19] = tested on: Mycobacterium avium; settings: 104; remark: listed apart in the source
[20] = tested on: Mycobacterium avium; settings: isolate MAV3; remark: listed apart in the source
[21] = tested on: Mycobacterium avium; settings: 104; remark: listed apart in the source
[22] = tested on: Mycobacterium avium; settings: isolate MAV2; remark: listed apart in the source
Description: Inhibition of multidrug resistance efflux pump in Mycobacterium avium isolate MAV2 assessed as potentiation of ofloxacin-induced antibacterial activity by measuring ofloxacin MIC at 1/2 MIC incubated for 3 days by MTT assay

[23] = tested on: Mycobacterium avium subsp. avium ATCC 25291
[24] = tested on: Mycobacterium avium; settings: 104 mc'2 4; remark: listed apart in the source
[25] = tested on: Mycobacterium avium; settings: isolate MAV2; remark: listed apart in the source
[26] = tested on: Mycobacterium avium subsp. avium ATCC 25291; remark: listed apart in the source
[27] = tested on: Mycobacterium avium subsp. avium ATCC 25291; remark: listed apart in the source
Description: Inhibition of multidrug resistance efflux pump in Mycobacterium avium ATCC 25291 assessed as potentiation of clarithromycin -induced antibacterial activity by measuring clarithromycin MIC at 1/4 MIC incubated for 3 days by MTT assay

[28] = tested on: Mycobacterium avium; settings: 104 mc'2 3; remark: listed apart in the source
[29] = tested on: Mycobacterium avium; settings: 104 mc'2 3; remark: listed apart in the source
[30] = tested on: Mycobacterium avium; settings: 104 mc'2 4; remark: listed apart in the source
[31] = tested on: Mycobacterium avium; settings: isolate MAV1; remark: listed apart in the source
[32] = tested on: Mycobacterium avium; settings: isolate MAV2; remark: listed apart in the source
[33] = tested on: Mycobacterium avium; settings: isolate MAV1; remark: listed apart in the source
Description: Inhibition of multidrug resistance efflux pump in Mycobacterium avium isolate MAV1 assessed as potentiation of ciprofloxacin-induced antibacterial activity by measuring ciprofloxacin MIC at 1/2 MIC incubated for 3 days by MTT assay (Rvb = 2 ug/ml)

[34] = tested on: Mycobacterium avium; settings: 104 mc'2 3; remark: listed apart in the source
[35] = Safety index, ratio of MTC for test compound to MTC for thioridazine for cytotoxicity in human monocyte-derived macrophages; assay type: cell-based, Macrophage cell line
[36] = Cytotoxicity in human monocyte-derived macrophages assessed as reduction in cell viability incubated for 3 days by alamar blue dye based assay; design: species or system Macrophage cell line; settings: for CC50 at 72 h: human monocyte-derived macrophages; for MTC: macrophage cell line, 72 h
[37] = tested on: Mycobacterium avium; settings: isolate MAV1; remark: listed apart in the source
Description: Inhibition of multidrug resistance efflux pump in Mycobacterium avium isolate MAV1 assessed as potentiation of ciprofloxacin-induced antibacterial activity by measuring ciprofloxacin MIC at 1/4 MIC incubated for 3 days by MTT assay

[38] = tested on: Mycobacterium avium; settings: isolate MAV2; remark: listed apart in the source
[39] = tested on: Mycobacterium avium; settings: isolate MAV4; remark: listed apart in the source
[40] = tested on: Mycobacterium avium; settings: isolate MAV2; remark: listed apart in the source
[41] = tested on: Mycobacterium avium; settings: 104 mc'2 3; remark: listed apart in the source
[42] = tested on: Mycobacterium avium; settings: isolate MAV4; remark: listed apart in the source
Description: Inhibition of multidrug resistance efflux pump in Mycobacterium avium isolate MAV4 assessed as potentiation of clarithromycin -induced antibacterial activity by measuring clarithromycin MIC at 1/2 MIC incubated for 3 days by MTT assay

[43] = tested on: Mycobacterium avium subsp. avium ATCC 25291; remark: listed apart in the source
Description: Inhibition of multidrug resistance efflux pump in Mycobacterium avium ATCC 25291 assessed as potentiation of ethidium bromide-induced antibacterial activity by measuring ethidium bromide MIC at 1/4 MIC incubated for 3 days by MTT assay

[44] = tested on: Mycobacterium avium; settings: 104; remark: listed apart in the source

CCCOc1ccc(-c2cn(CCN3CCCCCC3)c3ccccc3c2=O)cc1
MIC [1]: < 4 µg/mL | MIC [2]: 32 µg/mL (≈ 79.1 µM) | MIC [3]: 32 µg/mL (≈ 79.1 µM) | MIC [4]: 1.56 µg/mL (≈ 3.86 µM) | MIC [5]: 256 µg/mL (≈ 633 µM) | MIC [6]: 8 µg/mL (≈ 19.8 µM) | MIC [7]: < 2 µg/mL | MIC [8]: 256 µg/mL (≈ 633 µM) | MIC [9]: 0.5 µg/mL (≈ 1.24 µM) | MIC [10]: 32 µg/mL (≈ 79.1 µM) | MIC [11]: < 0.125 µg/mL | MIC [12]: < 4 µg/mL | MIC [13]: 8 µg/mL (≈ 19.8 µM) | MIC [14]: < 4 µg/mL | MIC [15]: 4 µg/mL (≈ 9.89 µM) | selectivity ratio [16]: 4 to 6 | selectivity ratio [17]: 2 to 4 | MIC [18]: < 0.125 µg/mL | MIC [19]: 4 µg/mL (≈ 9.89 µM) | MIC [20]: 0.78 µg/mL (≈ 1.93 µM) | MIC [21]: < 0.195 µg/mL | MIC [22]: 2 µg/mL (≈ 4.94 µM) | MIC [23]: 8 µg/mL (≈ 19.8 µM) | MIC [24]: < 0.195 µg/mL | MIC [25]: 32 µg/mL (≈ 79.1 µM) | MIC [26]: 8 µg/mL (≈ 19.8 µM) | MIC [27]: 8 µg/mL (≈ 19.8 µM) | MIC [28]: < 0.195 µg/mL | MIC [29]: < 0.125 µg/mL | MIC [30]: < 4 µg/mL | MIC [31]: < 4 µg/mL | MIC [32]: 512 µg/mL (≈ 1270 µM) | MIC [33]: < 0.031 µg/mL | MIC [34]: 2 µg/mL (≈ 4.94 µM) | selectivity ratio [35]: 4 to 6 | CC50 at 72 h [36]: 50 µM | MTC [36]: 20 µM | MIC [37]: 0.5 µg/mL (≈ 1.24 µM) | MIC [38]: 3.12 µg/mL (≈ 7.72 µM) | MIC [39]: < 0.125 µg/mL | MIC [40]: < 4 µg/mL | MIC [41]: 4 µg/mL (≈ 9.89 µM) | MIC [42]: < 0.0625 µg/mL | MIC [43]: 6.25 µg/mL (≈ 15.4 µM) | MIC [44]: 1 µg/mL (≈ 2.47 µM)

CCCOc1ccc(-c2cn(CCN(CC)CC)c3ccccc3c2=O)cc1
MIC [1]: < 2 µg/mL | MIC [2]: 128 µg/mL (≈ 338 µM) | MIC [3]: 256 µg/mL (≈ 676 µM) | MIC [4]: 6.25 µg/mL (≈ 16.5 µM) | MIC [5]: 1020 µg/mL (≈ 2710 µM) | MIC [6]: 256 µg/mL (≈ 676 µM) | MIC [7]: 16 µg/mL (≈ 42.3 µM) | MIC [8]: 256 µg/mL (≈ 676 µM) | MIC [9]: 4 µg/mL (≈ 10.6 µM) | MIC [10]: 512 µg/mL (≈ 1350 µM) | MIC [11]: 4 µg/mL (≈ 10.6 µM) | MIC [12]: 8 µg/mL (≈ 21.1 µM) | MIC [13]: 16 µg/mL (≈ 42.3 µM) | MIC [14]: 32 µg/mL (≈ 84.5 µM) | MIC [15]: 32 µg/mL (≈ 84.5 µM) | selectivity ratio [16]: 4 to 6 | selectivity ratio [17]: 2 to 4 | MIC [18]: 2 µg/mL (≈ 5.28 µM) | MIC [19]: 4 µg/mL (≈ 10.6 µM) | MIC [20]: 12.5 µg/mL (≈ 33 µM) | MIC [21]: 3.12 µg/mL (≈ 8.26 µM) | MIC [22]: 1 µg/mL (≈ 2.64 µM) | MIC [23]: 32 µg/mL (≈ 84.5 µM) | MIC [24]: 3.12 µg/mL (≈ 8.26 µM) | MIC [25]: 16 µg/mL (≈ 42.3 µM) | MIC [26]: 16 µg/mL (≈ 42.3 µM) | MIC [27]: 8 µg/mL (≈ 21.1 µM) | MIC [28]: 3.12 µg/mL (≈ 8.26 µM) | MIC [29]: 2 µg/mL (≈ 5.28 µM) | MIC [30]: 256 µg/mL (≈ 676 µM) | MIC [31]: 32 µg/mL (≈ 84.5 µM) | MIC [32]: > 512 µg/mL | MIC [33]: 2 µg/mL (≈ 5.28 µM) | MIC [34]: 4 µg/mL (≈ 10.6 µM) | selectivity ratio [35]: 4 to 6 | CC50 at 72 h [36]: 56.9 µM | MTC [36]: 10 µM | MIC [37]: 2 µg/mL (≈ 5.28 µM) | MIC [38]: 6.25 µg/mL (≈ 16.5 µM) | MIC [39]: 4 µg/mL (≈ 10.6 µM) | MIC [40]: 16 µg/mL (≈ 42.3 µM) | MIC [41]: 8 µg/mL (≈ 21.1 µM) | MIC [42]: 1 µg/mL (≈ 2.64 µM) | MIC [43]: 25 µg/mL (≈ 66 µM) | MIC [44]: 2 µg/mL (≈ 5.28 µM)
